This experiment deals with T1, BRD9-GFP (Homo sapiens, UniProt Q9H8M2).
T1 construct: CHYSEL (2A cis-acting hydrolase element) remnant after GFP; mCherry is split off as a separate protein (C); expressed in transfected cells; host or cells: HEK293A cells (Invitrogen R70507), lentiviral transduction with pLenti6-BRD9-GFP-CHYSEL-mCherry, blasticidin selection
T1 sequence (Q9H8M2 1-597): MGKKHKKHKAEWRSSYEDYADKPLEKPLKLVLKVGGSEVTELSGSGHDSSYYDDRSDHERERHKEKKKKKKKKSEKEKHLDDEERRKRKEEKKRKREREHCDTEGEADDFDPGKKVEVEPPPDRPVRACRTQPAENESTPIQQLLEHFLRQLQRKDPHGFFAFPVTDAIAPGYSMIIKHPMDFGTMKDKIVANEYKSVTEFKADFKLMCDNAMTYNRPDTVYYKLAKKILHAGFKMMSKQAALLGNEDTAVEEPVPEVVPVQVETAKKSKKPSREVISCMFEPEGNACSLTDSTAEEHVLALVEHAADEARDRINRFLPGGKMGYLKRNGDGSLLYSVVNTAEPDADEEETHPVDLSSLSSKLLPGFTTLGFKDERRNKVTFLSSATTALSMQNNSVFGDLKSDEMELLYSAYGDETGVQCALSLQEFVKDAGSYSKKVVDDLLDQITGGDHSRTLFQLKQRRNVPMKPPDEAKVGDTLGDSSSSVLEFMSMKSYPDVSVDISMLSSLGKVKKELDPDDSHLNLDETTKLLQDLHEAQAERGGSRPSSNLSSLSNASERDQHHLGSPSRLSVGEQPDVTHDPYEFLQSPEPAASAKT
The experiment is described as follows: BRD9-GFP protein abundance flow cytometry assay in HEK293A cells. Type of experiment: cell-based. The conditions noted are these: HEK293A-BRD9-GFP-CHYSEL-mCherry cells; for BRD9 Deg Amax %: 24 h, % protein remaining at the concentration at which maximum degradation is seen; for DC50: 24 h at 37° C., 10-point 1:3 dilution, concentration at which 50% maximal degradation was observed. In a few lines:
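HEK293A cells stably express bicistronic BRD9-GFP-CHYSEL-mCherry and received 24 h treatment at 37° C with a 10-point, 3-fold dilution series from […], in 0.1% DMSO and duplicate. Median GFP/mCherry ratio of 5,000 single cells by flow cytometry, normalized to mCherry-only cells (0%) and DMSO (100%), gave DC50 and Amax (% protein remaining).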

SMILES strings stand for the structures.

For `COc1cc(-c2cn(C)c(=O)c3cnccc23)ccc1OC1CCN(CC2CCN(C(=O)c3ccc(OC)c(N4CCC(=O)NC4=O)c3)CC2)CC1` [Compound A4, 1-(2-Methoxy-5-(4-((4-(2-methoxy-4-(2-methyl-1-oxo-1,2-dihydro-2,7-naphthyridin-4-yl)phenoxy)piperidin-1-yl)methyl)piperidine-1-carbonyl)phenyl)dihydropyrimidine-2,4(1H,3H)-dione], the “BRD9 Deg Amax %” value amounted to 14.01% and the DC50 amounted to 4 nM.
As for `COc1ccc(C(=O)N2CCC(CN3CCC(Oc4ccc(-c5cn(C)c(=O)c6cnccc56)cc4Cl)CC3)CC2)cc1N1CCC(=O)NC1=O` [Compound A17, 1-(5-(4-((4-(2-Chloro-4-(2-methyl-1-oxo-1,2-dihydro-2,7-naphthyridin-4-yl)phenoxy)piperidin-1-yl)methyl)piperidine-1-carbonyl)-2-methoxyphenyl)dihydropyrimidine-2,4(1H,3H)-dione], the “BRD9 Deg Amax %” value is given as 32.92% and it took 11 nM to reach half-maximal degradation (DC50).
The corresponding values for `CCCCn1cc(-c2ccc(CN3CCC(OC4CCN(C(=O)c5ccc(OC)c(N6CCC(=O)NC6=O)c5)CC4)CC3)c(F)c2)c2ccncc2c1=O` [Compound E54, 1-(5-(4-((1-(4-(2-butyl-1-oxo-1,2-dihydro-2,7-naphthyridin-4-yl)-2-fluorobenzyl)piperidin-4-yl)oxy)piperidine-1-carbonyl)-2-methoxyphenyl)dihydropyrimidine-2,4(1H,3H)-dione] are 18.33% and 4 nM.
Turning to `COc1cc(-c2cc(C)c(=O)n(C)c2)ccc1C(=O)N1CCN(CC2CCN(C(=O)c3ccc(OC)c(N4CCC(=O)NC4=O)c3)CC2)CC1` [Compound A3, 1-(5-(4-((4-(4-(1,5-Dimethyl-6-oxo-1,6-dihydropyridin-3-yl)-2-methoxybenzoyl)piperazin-1-yl)methyl)piperidine-1-carbonyl)-2-methoxyphenyl)dihydropyrimidine-24(1H,3H)-dione], the “BRD9 Deg Amax %” value stood at 12.29% and half-maximal degradation (DC50) was put at 68 nM.
For the molecule `COc1cc(-c2cn(C)c(=O)c3cnccc23)c(OC)cc1CCN1CCC(OC2CCN(C(=O)c3ccc(OC)c(N4CCC(=O)NC4=O)c3)CC2)CC1` [Compound A41, 1-(5-(4-((1-(2,5-Dimethoxy-4-(2-methyl-1-oxo-1,2-dihydro-2,7-naphthyridin-4-yl)phenethyl)piperidin-4-yl)oxy)piperidine-1-carbonyl)-2-methoxyphenyl)dihydropyrimidine-2,4(1H,3H)-dione], the “BRD9 Deg Amax %” value came out at 13.54% and the DC50 came to 60 nM.
On to `Cn1cc(-c2cc(F)c(CN3CCC(OC4CCN(CCn5cccc(CN6CCC(=O)NC6=O)c5=O)CC4)CC3)c(F)c2)c2ccncc2c1=O` [Compound E18, 1-((1-(2-(4-((1-(2,6-difluoro-4-(2-methyl-1-oxo-1,2-dihydro-2,7-naphthyridin-4-yl)benzyl)piperidin-4-yl)oxy)piperidin-1-yl)ethyl)-2-oxo-1,2-dihydropyridin-3-yl)methyl)dihydro-pyrimidine-2,4(1H,3H)-dione], for which the “BRD9 Deg Amax %” value is 16.66% and the DC50 is 19 nM.
Regarding `COc1cc(-c2cn(C)c(=O)c3cnccc23)c(OC)cc1CN1CCC(O[C@@H]2CCN(CCn3cccc(CN4CCC(=O)NC4=O)c3=O)C[C@H]2F)CC1` [Compound E2, 1-((1-(2-((3R,4R)-4-((1-(2,5-dimethoxy-4-(2-methyl-1-oxo-1,2-dihydro-2,7-naphthyridin-4-yl)benzyl)piperidin-4-yl)oxy)-3-fluoropiperidin-1-yl)ethyl)-2-oxo-1,2-dihydropyridin-3-yl)methyl)dihydropyrimidine-2,4(1H,3H)-dione], the “BRD9 Deg Amax %” value is reported as 12.45% and the DC50 was 35 nM.
For the molecule `COc1cc(-c2cn(C)c(=O)c(C)c2C)ccc1CN1CCN(CC2CCN(C(=O)c3ccc(Cl)c(N4CCC(=O)NC4=O)c3)CC2)CC1` [Compound A14, 1-(2-Chloro-5-(4-((4-(2-methoxy-4-(1,4,5-trimethyl-6-oxo-1,6-dihydropyridin-3-yl)benzyl)piperazin-1-yl)methyl)piperidine-1-carbonyl)phenyl)dihydropyrimidine-2,4(1H,3H)-dione], the “BRD9 Deg Amax %” value is 33.06% and the DC50 stood at 3 nM.
The corresponding values for `CCCn1cc(-c2cc(OC)c(CCN3CCC(OC4CCN(CCn5cccc(CN6CCC(=O)NC6=O)c5=O)CC4)CC3)c(OC)c2)c(C)c(C)c1=O` [Compound E23, 1-((1-(2-(4-((1-(4-(4,5-dimethyl-6-oxo-1-propyl-1,6-dihydropyridin-3-yl)-2,6-dimethoxyphenethyl)piperidin-4-yl)oxy)piperidin-1-yl)ethyl)-2-oxo-1,2-dihydropyridin-3-yl)methyl)dihydropyrimidine-2,4(1H,3H)-dione] are 14.27% and 11 nM.
Taken in the same sequence, the figures for `COc1ccc(C(=O)N2CCC(OC3CCN(Cc4c(OC)cc(-c5cc(C)c(=O)n(C)c5)cc4OC)CC3)CC2)cc1N1CCC(=O)NC1=O` [Compound A1] were 10.72% and 54 nM.
Consider `COc1ccc(C(=O)N2CCC(OC3CCN(CCCc4c(OC)cc(-c5cn(C)c(=O)c6cnccc56)cc4OC)CC3)CC2)cc1N1CCC(=O)NC1=O` [Compound A37, 1-(5-(4-((1-(3-(2,6-Dimethoxy-4-(2-methyl-1-oxo-1,2-dihydro-2,7-naphthyridin-4-yl)phenyl)propyl)piperidin-4-yl)oxy)piperidine-1-carbonyl)-2-methoxyphenyl)dihydropyrimidine-2,4(1H,3H)-dione], for which the “BRD9 Deg Amax %” value was 13.01% and the DC50 came out at 2 nM.
The corresponding values for `COc1cc(-c2cn(C)c(=O)c(C)c2C)ccc1CN1CCN(CC2CCN(C(=O)c3ccc(OC)c(N4CCC(=O)NC4=O)c3)CC2)CC1` [Compound A13, 1-(2-Methoxy-5-(4-((4-(2-methoxy-4-(1,4,5-trimethyl-6-oxo-1,6-dihydropyridin-3-yl)benzyl)piperazin-1-yl)methyl)piperidine-1-carbonyl)phenyl)dihydropyrimidine-2,4(1H,3H)-dione] are 18.05% and 15 nM.
For the molecule `CCCCn1cc(-c2ccc(CN3CCC(OC4CCN(C(=O)c5ccc(OC)c(N6CCC(=O)NC6=O)c5)CC4)CC3)cc2)c2ccncc2c1=O` [Compound E13, 1-(5-(4-((1-(4-(2-butyl-1-oxo-1,2-dihydro-2,7-naphthyridin-4-yl)benzyl)piperidin-4-yl)oxy)piperidine-1-carbonyl)-2-meth-oxyphenyl)dihydro-pyrimidine-2,4(1H,3H)-dione], the “BRD9 Deg Amax %” value was determined as 13.06% and it took 2 nM to reach half-maximal degradation (DC50).
Turning to `Cn1cc(-c2ccc(CN3CCC(OC4CCN(CCn5cccc(CN6CCC(=O)NC6=O)c5=O)CC4)CC3)cc2)c2ccncc2c1=O` [Compound E37, 1-((1-(2-(4-((1-(4-(2-methyl-1-oxo-1,2-dihydro-2,7-naphthyridin-4-yl)benzyl)piperidin-4-yl)oxy)piperidin-1-yl)ethyl)-2-oxo-1,2-dihydropyridin-3-yl)methyl)dihydropyrimidine-2,4(1H,3H)-dione], the “BRD9 Deg Amax %” value amounted to 13.77% and the DC50 is 9 nM.
As to `CCCCn1cc(-c2ccc(O[C@H]3CCN(CC4CCN(C(=O)c5ccc(OC)c(N6CCC(=O)NC6=O)c5)CC4)C[C@@H]3F)c(F)c2)c2ccncc2c1=O` [Compound E16, 1-(5-(4-(((3S,4S)-4-(4-(2-butyl-1-oxo-1,2-dihydro-2,7-naphthyridin-4-yl)-2-fluorophenoxy)-3-fluoropiperidin-1-yl)methyl)piperidine-1-carbonyl)-2-meth-oxyphenyl)dihydro-pyrimidine-2,4(1H,3H)-dione], the “BRD9 Deg Amax %” value was 16.58% and it took 1 nM to reach half-maximal degradation (DC50).
Taken in the same sequence, the figures for `COc1cc(-c2cn(C)c(=O)c3cnccc23)cc(OC)c1CCN1CCC(OC2CCN(CCn3cccc(CN4CCC(=O)NC4=O)c3=O)CC2)CC1` [Compound C4, 1-((1-(2-(4-((1-(2,6-dimethoxy-4-(2-methyl-1-oxo-1,2-dihydro-2,7-naphthyridin-4-yl)phenethyl)piperidin-4-yl)oxy)piperidin-1-yl)ethyl)-2-oxo-1,2-dihydropyridin-3-yl)methyl)dihydropyrimidine-2,4(1H,3H)-dione] were 19.82% and 17 nM.
With `COc1ccc(C(=O)N2CCC(CN3CCN(Cc4c(OC)cc(-c5cn(C)c(=O)c6cnccc56)cc4OC)CC3)CC2)cc1N1CCC(=O)NC1=O` [Compound A24, 1-(5-(4-((4-(2,6-Dimethoxy-4-(2-methyl-1-oxo-1,2-dihydro-2,7-naphthyridin-4-yl)benzyl)piperazin-1-yl)methyl)piperidine-1-carbonyl)-2-methoxyphenyl)dihydropyrimidine-2,4(1H,3H)-dione], the “BRD9 Deg Amax %” value amounted to 13.31% and half-maximal degradation (DC50) was put at 27 nM.
